# “Also recorded” adds a separate entry of the source.
# Columns and labels:
# Fgr [1] = target: Fgr (Homo sapiens, UniProt P09769); conditions: cited from earlier work
# Fgr [2] = target: T1, Fgr (Mus musculus, UniProt P14234); test: Western blot of Fgr phosphorylation in tdTOMp16+ cells (phospho-Fgr antibody); type: cell-based
# T1 construct: endogenous in cells; host or cells: tdTOMp16+ mouse bone marrow stromal (MSC) cell line, irradiated, senescent tdTOM+ cells
# Experimental: FIG. 7A-FIG. 7B show shRNA knockdown of Fgr in vitro and inhibition of activation of Fgr by TL02-59. FIG. 7A) The tdTOMp16+ cell line was transfected with three individual Fgr shRNAs. […] (Phospho-FGR (Tyr412) Rabbit Polyclonal Antibody. Company: Thermo Fisher Scientific, Catalogue #PA5-64583).
# FIG. 23A-FIG. 23C. […] FIG. 23A—Irradiated tdTOMp16+ non-senescent (tdTOM−) and senescent (tdTOM+) cells were cultured on the top well of the transwell, and the target C57BL/6 stromal cells were cultured on the bottom well. Cells were treated with either vehicle or 10 nM Fgr inhibitor TL02-59 and after 10 days, target cells were harvested for RNA, and RT-qPCR was performed for TGF-β and Collagen 3 genes. FIG. 23B—Inhibition of Fgr phosphorylation by TL02-59 was confirmed by western blot from the vehicle and TL02-59-treated cell lysates of irradiated senescent (tdTOM+) cells (n=3, *P=<0.05; **P=0.01). […] NS nonsignificant), P values were calculated by t test.
# The role of Fgr in fibrosis induction was next investigated by two methods of inhibition: first, pharmacologic inhibition of Fgr was applied by adding the Fgr-specific small-molecule inhibitor TL02-59 (FIG. 23A, FIG. 23B). […] Using the transwell non-contact coculture system, the effect of a specific inhibitor of Fgr TL02-59 (10 nM) on the induction of biomarkers of fibrosis in target cells by tdTOM+ senescent cells was measured for 10 days. […]
# gfp+ bone marrow cells = test: Transwell cell migration assay, gfp+ bone marrow cells towards senescent cells (3-micron filter); type: cell-based, mouse; conditions: TL02-59 10 nM, 48 h, FIG. 45A, C, D
# Experimental: FIG. 45A-FIG. 45F. […] FIG. 45A—The tdTOMp16+ cells either irradiated or non-irradiated were sorted by FACS for either tdTOM+ or tdTOM− cells, and each population was placed in the bottom chamber of each culture, well separated by a 3-micron filter. Gfp+ bone marrow cells were placed on the top chamber of each well and migration assay was carried out (3-micron membrane). The Fgr inhibitor TL02-59 (10 nM) (Shen K et al. Sci Signal 11(553): eaat5916, 2018) or RS 504393 (10 μM), a Ccl2 inhibitor, which is a CCR2 chemokine receptor antagonist, was added to cultures 24 h later. The migration of gfp+ bone marrow cells from the top chamber through the 3-micron filter to the bottom chamber was imaged and total gfp+ cells were counted. FIG. 45B—Image of gfp+ migrating cells through the filter at 24 h for each condition (×100). At 48 h, emigrated gfp+ cells in the bottom well were counted by FACS. After 48 h, migrating total. (FIG. 45C) gfp+ cells, and (FIG. 45D) gfp+ CD45+ cells were counted by FACS. […] Cell migration from the top wells to the bottom wells was evaluated by imaging and by (FIG. 45F) FACS analysis. (n=3, ****p=0.0001). p-Values were calculated by the t-test.
# In vitro transwell experiments. […] The migration of gfp+ cells through the filter to the bottom compartment was measured by imaging the bottom wells and counting gfp+ cells relative to numbers of senescent TOM+ (red) cells. […]
# [3] = system: tdTOMp16+ red senescent cells; test: Chemokine array of media from sorted senescent tdTOMp16+ cells; type: cell-based, mouse; conditions: TL02-59 10 nM, 72 hours, FIG. 50
# Experimental: FIG. 50. […] Using chemokine array relative amounts of chemokines secreted in the media was measured. (n=2, *, p<0.05, p values were calculated using unpaired t-test).
# Fgr (Homo sapiens, UniProt P09769), sequence (P09769 whole entry, species assumed): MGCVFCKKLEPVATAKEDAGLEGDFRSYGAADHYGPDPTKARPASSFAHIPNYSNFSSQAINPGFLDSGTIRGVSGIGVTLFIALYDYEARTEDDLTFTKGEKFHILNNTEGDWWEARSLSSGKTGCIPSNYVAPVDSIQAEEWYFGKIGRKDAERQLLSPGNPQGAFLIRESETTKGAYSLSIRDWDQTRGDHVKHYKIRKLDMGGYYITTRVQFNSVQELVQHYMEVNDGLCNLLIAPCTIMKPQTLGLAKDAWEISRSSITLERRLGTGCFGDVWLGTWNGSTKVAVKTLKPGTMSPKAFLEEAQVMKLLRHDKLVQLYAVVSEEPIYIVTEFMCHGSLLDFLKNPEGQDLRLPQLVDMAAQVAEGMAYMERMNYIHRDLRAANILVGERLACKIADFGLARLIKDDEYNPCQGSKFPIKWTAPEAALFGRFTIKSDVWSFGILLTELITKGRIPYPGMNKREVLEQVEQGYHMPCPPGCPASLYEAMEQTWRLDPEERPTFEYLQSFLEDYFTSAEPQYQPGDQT
# T1 sequence (P14234 whole entry): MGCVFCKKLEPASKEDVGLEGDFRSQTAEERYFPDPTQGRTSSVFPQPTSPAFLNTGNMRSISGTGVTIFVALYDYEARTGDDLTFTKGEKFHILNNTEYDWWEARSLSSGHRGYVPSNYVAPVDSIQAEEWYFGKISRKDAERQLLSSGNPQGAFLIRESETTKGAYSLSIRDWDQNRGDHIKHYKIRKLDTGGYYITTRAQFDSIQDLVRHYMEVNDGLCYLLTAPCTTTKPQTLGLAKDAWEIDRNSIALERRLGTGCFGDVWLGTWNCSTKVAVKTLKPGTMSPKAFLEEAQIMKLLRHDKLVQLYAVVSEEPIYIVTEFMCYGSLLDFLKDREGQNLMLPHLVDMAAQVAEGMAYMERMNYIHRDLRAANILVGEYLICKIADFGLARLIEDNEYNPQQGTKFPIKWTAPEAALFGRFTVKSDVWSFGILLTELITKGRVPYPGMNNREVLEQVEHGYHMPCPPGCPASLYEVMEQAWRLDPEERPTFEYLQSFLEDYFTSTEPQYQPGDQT
smiles,measurement,setting,value
CCN1CCN(Cc2ccc(NC(=O)c3ccc(C)c(Oc4ncnc5cc(OC)c(OC)cc45)c3)cc2C(F)(F)F)CC1 [TL02-59],kinases inhibited at 10 nM concentration,Fgr [1]; 10 nM,inhibits only Fgr
same,concentration with complete inhibition of Fgr,Fgr [1],above 10 nM
same,concentration with partial inhibition of Fgr,Fgr [1],0.1 to 1 nM
same,selectivity for Fgr over other kinases,Fgr [1],remarkably selective for Fgr; also recorded: Fgr specific in the nanomolar concentration
same,phosphorylation of Fgr (Tyr412),"Fgr [2]; 0.1 μM TL02-59, tdTOMp16+ cell line, FIG. 7B",Inhibition of phosphorylation of Fgr
same,"Fgr phosphorylation in irradiated senescent (tdTOM+) cells, western blot","Fgr [2]; vehicle vs TL02-59 treated cell lysates, FIG. 23",inactivated Fgr; also recorded: inhibited
same,migration of gfp+ monocyte/macrophages towards senescent cells from irradiated tdTOMp16+ stromal cell line,gfp+ bone marrow cells,abrogated monocyte/macrophages recruitment; also recorded: significantly reduced the migration; also recorded: inhibited; also recorded: prevents migration
same,secretion of senescence associated secretory chemokines (chemokine array),[3],reduces secretion of senescence associated secretory chemokines

# From patent US20240182893A1, “INHIBITION OF FGR REDUCES FIBROSIS” (UNIVERSITY OF PITTSBURGH-OF THE COMMONWEALTH SYSTEM OF …, priority 2021, published 2024)
